The values below are quoted from earlier work in patent US20100286080A1, “AQUEOUS COMPOSITION COMPRISING CHITOSAN AND AN ACIDIC DRUG” (The Jordanian Pharmaceutical Manufacturing Co., priority 2007, published 2010).

For data set [1] the following is noted: single 200-mg oral dose, fasting subjects.

On to `CC(C)Cc1ccc(C(C)C(=O)O)cc1` (centres unmarked) [Ibuprofen], for which the Solubility in water result was “practically insoluble in water”. Moreover, the “Time of peak plasma levels after administration” value in data set [1] is “about 1 hr”.
